Holding throughout (type): cell-based
Data set [1] concerns the target T1, PPARα (Mus musculus, UniProt P23204).
T1 construct: gene Ppara; FAO cells stably transfected with mouse PPARα
T1 sequence (P23204 1-468): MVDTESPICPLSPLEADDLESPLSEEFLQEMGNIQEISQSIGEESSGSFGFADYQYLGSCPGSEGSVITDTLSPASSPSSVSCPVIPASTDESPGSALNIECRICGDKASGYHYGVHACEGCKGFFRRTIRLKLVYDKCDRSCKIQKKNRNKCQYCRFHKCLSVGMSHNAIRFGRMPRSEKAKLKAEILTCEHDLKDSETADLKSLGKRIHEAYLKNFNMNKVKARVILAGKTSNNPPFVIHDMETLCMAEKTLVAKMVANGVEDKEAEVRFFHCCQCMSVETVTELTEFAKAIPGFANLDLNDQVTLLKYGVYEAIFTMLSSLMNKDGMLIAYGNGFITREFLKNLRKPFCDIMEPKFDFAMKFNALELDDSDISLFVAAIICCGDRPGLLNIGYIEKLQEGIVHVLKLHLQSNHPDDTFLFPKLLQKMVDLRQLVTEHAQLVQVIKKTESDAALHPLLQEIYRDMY
The data set is described as follows: AOX target gene expression (qPCR) in FAO-PPARα cells at […]. As to conditions: fao-pparalpha cells, 0.1 µM. (In general: Real-time PCR tracks product formation cycle by cycle.)

Data set [2] addresses T1, PPARα. The data set is described as above. As to conditions: read-out: AOX target gene expression (qPCR) in FAO-PPARα cells at 100 μM.
Data set [3] deals with T2, PPARγ (Mus musculus, UniProt P37238).
T2 construct: gene Pparg
T2 sequence (P37238 1-505): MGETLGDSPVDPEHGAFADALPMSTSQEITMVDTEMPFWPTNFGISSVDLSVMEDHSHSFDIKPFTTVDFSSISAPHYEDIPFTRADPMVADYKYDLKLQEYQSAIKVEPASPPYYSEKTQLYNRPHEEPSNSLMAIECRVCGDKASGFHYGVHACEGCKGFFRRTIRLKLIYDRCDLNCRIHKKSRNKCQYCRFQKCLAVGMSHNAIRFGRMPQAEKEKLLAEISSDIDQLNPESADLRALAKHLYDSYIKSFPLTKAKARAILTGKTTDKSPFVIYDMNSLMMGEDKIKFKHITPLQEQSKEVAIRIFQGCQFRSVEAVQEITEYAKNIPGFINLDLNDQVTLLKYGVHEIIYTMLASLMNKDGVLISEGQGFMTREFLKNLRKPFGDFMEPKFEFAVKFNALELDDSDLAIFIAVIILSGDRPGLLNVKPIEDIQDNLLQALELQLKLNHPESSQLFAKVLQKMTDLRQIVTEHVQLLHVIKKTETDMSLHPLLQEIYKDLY
Briefly: FABP4 target gene expression (qPCR) in NIH 3T3 L1 cells at […]. The note with it: NIH3T3, read-out: FABP4 target gene expression (qPCR) in NIH 3T3 L1 cells at 100 μM.

For data set [4], the target named is T1, PPARα. The data set is described as follows: AOX target gene expression (qPCR) in FAO-PPARα cells.
Data set [5] concerns the target T2, PPARγ. The data set is described as follows: FABP4 target gene expression and lipid accumulation in NIH 3T3 L1 cells, with PPARγ shRNA knockdown.
Data set [6] deals with T2, PPARγ. Briefly: FABP4 target gene expression (qPCR) in NIH 3T3 L1 cells at […]. The note with it: NIH3T3, read-out: FABP4 target gene expression (qPCR) in NIH 3T3 L1 cells at 100 nM.

Turning to `CC(C)(Sc1ccc(CCN(CCCCC2CCCCC2)C(=O)NC2CCCCC2)cc1)C(=O)O` [GW7647, 2-(4-(2-(1-(cyclohexanebutyl)-3-cyclohexylureido)ethyl)phenylthio)-2-methylpropionic acid], the “AOX target gene expression (qPCR) in FAO-PPARα cells at 100 nM” value at PPARα [1] came out at 4.9 ± 0.5 fold increase.

Consider `CCCCC(CC)COC(=O)c1ccccc1C(=O)O` (stereo not drawn) [MEHP], for which the fold induction at 100 µM on PPARα [2] turned out to be 5.4 ± 0.6; on PPARγ [3], 11.5 ± 2.7. Consider `CCCCC(CC)COC(=O)c1c(Br)c(Br)c(Br)c(Br)c1C(=O)O` (stereo not drawn) [TBMEHP], for which the “AOX target gene expression (qPCR) in FAO-PPARα cells” value on PPARα [4] is “TBMEHP, but not TBPH, significantly up-regulated the expression of both FABP4 and AOX mRNA”. At PPARγ [5], the “FABP4 target gene expression and lipid accumulation in NIH 3T3 L1 cells, with PP” value is “TBMEHP-induced expression of the PPARγ target gene, FABP4, was significantly impaired in PPARγ-shRNA transduced cells”. With `CN(CCOc1ccc(CC2SC(=O)NC2=O)cc1)c1ccccn1` (stereo not drawn) [rosiglitazone], the fold induction at 0.1 µM on PPARγ [6] came to 6 ± 1.4.

For the origin of these results see article PMC3548273, “Rodent Thyroid, Liver, and Fetal Testis Toxicity of the Monoester Metabolite of Bis-(2-ethylhexyl) Tetrabromophthalate (TBPH), a Novel Brominated Flame Retardant Present in Indoor Dust” (Environmental Health Perspectives, 2012).
